Results on one compound are retold here after US9974290B2, “Animal model and method for studying gene-gene interactions” (UNIVERSITY OF SOUTH FLORIDA, priority 2015, dated 2018).

This assay concerns Raji B cells. The assay can be described thus: Apoptosis assay in Raji B cells treated with PS-341. Type of assay: cell-based. Particulars: Raji B cells treated with PS-341 (FIG. 11B); effect can be rescued by LRBA knockdown. How it is done: FIGS. 2A, 2B, 2C-1, 2C-2, 2D, and 2E. LRBA interacts with NFkB and regulates cell survival. FIG. 2A: LRBA was stably knocked down in Raji cells by the short hairpin (sh) RNA technique in Raji B cells. NFkB activity was measured by an NFkB luciferase reporter. FIG. 2B: The phospho-NFkB (pS529) levels were detected by Phosflow Kit. FIGS. 2C-1 and 2C-2: TNFα (FIG. 2C-1) and IL10 (FIG. 2C-2) proteins levels were measured by the human Th1/Th2 cytokine bead-array kit. FIG. 2D: Apoptosis assay. Raji B cells were treated with various stress stimuli including proteasome inhibitors, serum starvation and bacterial infection. Apoptosis was detected by Annexin V-PE and 7-AAD. FIG. 2E: LRBA (−/−) ES cell clones were obtained by culturing LRBA (+/−) ES cells with 1 mg/ml G418 for ˜two weeks. Equal number of ES cells was plated into each well of a 96-well plate. The average cell numbers were counted from three wells at each time point.
FIGS. 11A-11E. LRBA interacts with important genes in regulating apoptosis and proliferation. […] FIG. 11A: NFkB activity was measured by an NFkB luciferase reporter. The Phosphorylated (P−) NFkB (pS529) levels were detected by Phosflow Kit. […] The average cell numbers were counted from three wells at each time point. […] Cell lysates from WT or LRBA KD stable Raji cells were analyzed by Western blot. Protein levels were quantified with Quantity One software. […]

SMILES strings stand for the structures.

As for `CC(C)C[C@H](NC(=O)[C@H](Cc1ccccc1)NC(=O)c1cnccn1)B(O)O` [PS-341], the apoptosis entry was “promotes apoptosis”.
